Data from the METLIN SMRT retention time set (Domingo-Almenara et al. 2019).

Assay: gradient 5% acetonitrile 3 min, to 50% in 2 min, to 85% in 15 min, held 3 min, 100 µL/min
Conditions: column: Zorbax Extend-C18 2.1 x 50 mm; eluents: water / acetonitrile, 0.1% formic acid
Summary of the method: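 The mobile phases were water and acetonitrile, each with 0.1% formic acid, pumped at 100 μL/min through a Zorbax Extend-C18 column (2.1 × 50 mm, 1.8 μm). Pure standards were injected as mixtures of ~100 molecules and detected by a quadrupole time-of-flight mass spectrometer in positive and negative ionization mode. Retention time came from computationally picked adduct peaks, each inspected by hand.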

Row | Structure (SMILES) | RP-LC retention time
1 | COc1ccc(C2Cn3cnc(C(=O)N4CCC(C(=O)NCC5CCCCC5)CC4)c3CO2)cc1 (stereo unspecified) | 821 s
2 | Cc1cc(N2CCCC2)nc(N2CCN(C(=O)CCC3CCCCC3)CC2)n1 | 825 s
3 | CCCc1nc2cccnc2n1C1CCN(C(=O)Cc2cccs2)C1 (stereo unspecified) | 612 s
4 | CCn1nc(C)n2cc(S(=O)(=O)NCc3ccc(F)cc3)cc2c1=O | 836 s
5 | CC(C)C(=O)NCc1cnn(-c2ccc(C(=O)Nc3ccc4c(c3)OCCO4)cc2)c1 | 733 s
6 | Cc1ccccc1CNC(=O)C1=C2CCCN2c2ccccc2S1(=O)=O | 873 s
7 | CCCn1cc(S(=O)(=O)Nc2ccccc2OC)c2cccnc21 | 904 s
8 | Cc1ccc(S(=O)(=O)Cc2noc(-c3ccc(Cl)cc3)n2)cc1 | 1040 s
9 | COCc1noc(CC2CCOC3(CCN(Cc4sccc4C)CC3)C2)n1 (stereo unspecified) | 636 s
10 | COCCCNC(=O)c1c(OCC2CC2)cc(=O)n2c1CCCCC2 | 611 s
11 | Cc1ccc(S(=O)(=O)[C@H]2CS(=O)(=O)C[C@@H]2N2CCN(c3ccccc3)CC2)cc1 | 920 s
12 | Cc1cc(=O)n(CC(=O)Nc2ccccc2F)c(N2CCCCC2)n1 | 649 s
13 | CCSc1nc(NC(C)C)c2cnn(CCNC(=O)Cc3c(C)noc3C)c2n1 | 716 s
14 | Cc1ccc(C)c(N2CCN(S(=O)(=O)c3c(C)sc(C)c3-c3n[nH]c(C)c3C)CC2)c1 | 1190 s
15 | CCc1c(C2CCN(C(=O)Nc3ccc(OC)cc3)CC2)noc1N | 693 s
16 | CC(C)c1nnc(-c2cccnc2N2CCN(C(=O)c3ccc4c(c3)OCO4)CC2)o1 | 759 s
17 | Cc1cccc(NC(=O)Nc2ccc(-c3cn4ccc(C)nc4n3)cc2)c1 | 670 s
18 | O=C(N[C@H]1C[C@@H]2C[C@H]1CN2S(=O)(=O)c1ccc2c(c1)CCC2)c1cccs1 | 943 s
19 | CCCC(=O)Nc1nnc(SCc2ccc(Br)cc2)s1 | 934 s
20 | CCn1cc(SCC(=O)Nc2c(C)cc(C)cc2C)c2ccccc21 | 998 s
21 | O=C(C1CCN(S(=O)(=O)N2CCOCC2)CC1)N1CCCC(c2nc(C3CCOCC3)no2)C1 (stereo unspecified) | 700 s
22 | CCCn1nnc2cc(-c3noc(COc4ccc(Cl)cc4)n3)ccc21 | 1120 s

Row | Structure (SMILES) | RP-LC retention time
23 | CCOc1ccc(C2CNC(=O)C2C(=O)OC)cc1OCC (stereo unspecified) | 694 s
24 | CC(C)N1CCN(C(=O)c2csc(N3CCN(c4ccc(Cl)cc4)CC3)n2)CC1 | 706 s
25 | O=C(Cn1cccc1-c1nnc(C2CCC2)o1)Nc1ccc(F)c(F)c1 | 945 s
26 | CC(C)CN1C(=O)c2cccn2CC1CNC(=O)C1(c2ccccc2)CC1 (stereo unspecified) | 832 s
27 | O=C(NCCN1CCOCC1)C1=C2CCCN2c2ccc(F)cc2S1(=O)=O | 586 s
28 | COc1ccc(F)cc1S(=O)(=O)N1CCC2(CCC(CN3CCN(C)CC3)O2)CC1 (stereo unspecified) | 601 s
29 | O=C(C1CCN(S(=O)(=O)c2ccc(-c3noc(-c4cccc(F)c4)n3)cc2)CC1)N1CCCC1 | 1020 s
30 | Cc1nc(NC(=O)CN(C)c2nc3c(C)ccc(C)c3s2)sc1C(=O)N(C)C | 803 s
31 | CCc1c(C2CCN(C(=O)c3cccc(C#N)c3)CC2)noc1N | 690 s
32 | O=C(Nc1ccc2c(c1)C(=O)N1CCCCC1CCO2)c1ccc2nsnc2c1 (stereo unspecified) | 800 s
33 | CCOC(=O)C1=C(CN2CCN(Cc3ccccc3)CC2)NC(=O)NC1c1cccc(OC)c1OC (stereo unspecified) | 660 s
34 | CCOc1ccc(-c2cc(C(F)(F)F)nn2-c2nc(-c3ccc(F)cc3)cs2)cc1 | 882 s
35 | Cc1onc(-c2ccccc2Cl)c1C(=O)NC1CC1 | 746 s
36 | O=C(NCC1CCOCC1)Nc1cccc(Br)c1 | 749 s
37 | O=C(Cc1ccc(Br)cc1)Nc1cc(-c2ccsc2)no1 | 983 s
38 | Cc1cccc(CN2CCCN(c3ncccc3-c3nc(C4CC4)no3)CC2)c1 | 732 s
39 | Cc1cccc(Cn2ccc3ccn(CC(=O)N4CCOc5ccc(C)cc54)c(=O)c32)c1 | 1090 s
40 | COc1cc(-c2noc(Cn3ccn(-c4ccccc4)c(=O)c3=O)n2)cc(OC)c1OC | 749 s
41 | Cc1nc(-c2ccncc2)cc2nn(CC(=O)Nc3ccc(F)c(Cl)c3)c(=O)n12 | 679 s
42 | Cc1ccc(CNC(=O)c2ccc3ncnc(N4CCCC4)c3c2)cc1 | 656 s
43 | CC(C)Cc1cc(-c2nn3c(-c4ccccc4F)nnc3s2)n[nH]1 | 915 s
44 | CCOC(=O)CCCSc1nc2sc3c(c2c(=O)[nH]1)CCC3 | 870 s

Row | Structure (SMILES) | RP-LC retention time
45 | CC(=O)Nc1ccc2c(c1)CN(C(=O)c1ccccc1C(F)(F)F)C(C(=O)N(C)C)C2 (stereo unspecified) | 675 s
46 | Cc1cccc(NC(=O)C2CCN(S(=O)(=O)c3ccc4c(c3)sc(=O)n4C(C)C)CC2)c1 | 1010 s
47 | CCOc1ccc(CC(=O)Nc2ccc(-c3nc(-c4ccccc4)co3)cc2)cc1OCC | 1150 s
48 | CCCn1nnc(NCc2ccc(-c3cc(Cl)cc(Cl)c3)o2)n1 | 1210 s
49 | CN1CC[C@@H]2CN3CCc4cccc(c43)[C@@H]2C1 | 644 s
50 | COc1cccc(-c2cc(N3CCN(C(=O)Nc4cc(OC)ccc4OC)CC3)ncn2)c1 | 688 s
51 | COc1ccc(NC(=O)CN2C(=O)CC(c3cccs3)=Nc3ccccc32)cc1 | 899 s
52 | CCCc1noc(-c2ccc(-n3ncc(C(=O)NC4CCCC4)c3C)nc2)n1 | 1030 s
53 | CCC(CC)NC(=O)C1CCN(c2nc3ccc(-c4cncnc4)nc3s2)CC1 | 810 s
54 | CC(=O)Nc1cccc(N2CC(C(=O)Nc3ccc(OC(F)(F)F)cc3)CC2=O)c1 (stereo unspecified) | 760 s
55 | CCOc1ccccc1NC(=O)CN1c2ccc(F)cc2-c2ccccc2S1(=O)=O | 1090 s
56 | CCOc1ccccc1C(=O)Nc1cccn2c(C)nnc12 | 790 s
57 | Cn1c(=O)c2c(ncn2CC(=O)N2CCC(CCOc3ccc(F)cc3)C2)n(C)c1=O (stereo unspecified) | 748 s
58 | Cc1ccc(NC(=O)NC2CCN(c3ccc(F)c(C)c3)C2=O)c(C)c1 (stereo unspecified) | 874 s
59 | Cc1nc(C)n(CC(=O)Nc2ccc(F)cc2)c(=O)c1C | 630 s
60 | Cc1nc(-c2ccc3c(c2)n(CC(=O)N2CCC4(CC2)OCCO4)c(=O)n3C(C)C)no1 | 720 s
61 | Cc1ccc(CNc2cc(-n3cccn3)ncn2)cc1 | 898 s
62 | CCn1nccc1-c1cccc(-c2noc(C3CC(=O)N(c4cccc(Cl)c4)C3)n2)c1 (stereo unspecified) | 1090 s
63 | COCCNc1c(-c2cccc(F)c2)nc2sc(C(=O)NC3CCCC3)c(C)n12 | 917 s
64 | COc1ccc(-c2nc3c4cnn(-c5ccccc5Cl)c4ncn3n2)cc1OC | 845 s
65 | COc1ccc(C)cc1NC(=O)[C@@H]1[C@H](c2cc(OC)c(OC)c(OC)c2)c2cc3c(cc2[C@H](O)[C@H]1CO)OCO3 | 795 s
66 | CN1CCCc2cc(CCNC(=O)c3c(F)cccc3F)ccc21 | 614 s
